Blank lines part the entries; values can stand above or below the compound they belong to.
Experiments:
[1] = Solubility of optional additional components in the solvents; assay type: physicochemical
Text: Additional ingredients were chosen for their compatibility with (e.g., miscibility in) 1,3 propanediol, 1,2 propanediol, and 1,3 butanediol.

[2] = Comparative studies of prior-art ascorbic acid solutions; assay type: physicochemical; details: ascorbic acid with urea in propylene glycol, butylene glycol and propanediol
Procedure: This example was reproduced.
All mixtures were heated to 85° C.

[3] = Procedure: A series of experiments were performed to assess and optimize the components of the subject vitamin C formulations. […] U refers to urea. % values are wt %
erythema (skin redness) = details: concentrations of 0.2%; clinical data from SEPPIC; cited from earlier work

Solubility in 1,3 propanediol, 1,2 propanediol and 1,3 butanediol ([1]; at the desired concentrations (0.5-1%)): readily soluble
Compound: COc1cc(CC(C(C)=O)C(C)=O)ccc1O [Acetyl zingerone]

Concentration solubilized in 1,3 propanediol [1]: up to 10%
Solubility in 1,3 propanediol in the presence of hydroxyethyl urea [1]: slightly increased
Concentration solubilized in a 1,3 propanediol base ([1]; with 10% AA, 5% U): 7.5%
Compound: O=C(O)CCCCCCCC(=O)O [AzA, Azelaic acid, reference compound]

Maximum concentrations soluble before urea starts to precipitate (the ceiling) [2]: 20%
Minimum amount U required to solubilize 20% AA [3]: ~10%
Solubility of U in 1,3 propanediol (saturation reached before recrystallization of U) [3]: ~27.8%
Compound: NC(N)=O [urea]

Solubility in 1,3-propanediol ([1]; unlike 18B-glycyrrhetinic acid): shows solubility
Compound: CC1(C)[C@@H](O[C@H]2O[C@H](C(=O)O)[C@@H](O)[C@H](O)[C@H]2O[C@@H]2O[C@H](C(=O)O)[C@@H](O)[C@H](O)[C@H]2O)CC[C@]2(C)[C@H]3C(=O)C=C4[C@@H]5C[C@@](C)(C(=O)O)CC[C@]5(C)CC[C@@]4(C)[C@]3(C)CC[C@@H]12 [glycyrrhizic acid, Glycyrrhizic acid]

Solubility in 1,3 propanediol, 1,2 propanediol and 1,3 butanediol ([1]; at a concentration of 0.2%): soluble
Compound: madecassoside
Erythema (skin redness) (erythema (skin redness)): desirable ability to reduce erythema
